Measurements as given in US9101567B2, “Suppression of cancer growth and metastasis using nordihydroguaiaretic acid derivatives with 7-hydroxystaurosporine” (The Johns Hopkins University, priority 2010, dated 2015).

Assays:
Type in all cases: cell-based, human
LC3B = assay: Immunocytochemistry of LC3B (autophagosomes) in LNCaP cells; details: 6 hrs, Baflomycin A1 (100 nM), control cells and cells under combination treatments, M4N 80 μM
From the text: […] After permeabilized by 0.2% Tryton X-100 and 1% goat serum diluted in PBS (−), the cells were blocked by PBS (−) containing 5% goat serum.

BNIP3 = assay: Western blotting of BNIP3 in LNCaP cells, normoxic or hypoxic; details: normoxic or hypoxic condition, M4N 80 μM
From the text: LNCaP human prostate cancer, DU145 human prostate cancer, PC3 human prostate cancer, MCF-7 human breast cancer, MDA-MB-231 human breast cancer, MDA-MB-468 human breast cancer, HT29 human colon cancer, K562 human myelogenous leukaemia, HepG2 human hepatoma, Hep3B human hepatoma, and LN229 human glioblastoma cancer cell lines were purchased from American Type Culture Collection (Manassas, Va.). OC24 human ascites ovarian cancer cell line was a generous gift from Dr. XXX (Johns Hopkins University, MD). LNCaP cell line was cultured in RPMI1640 medium supplemented with glucose (14 mM), pyruvate (1 mM), and fetal bovine serum (FBS) (10%). DU145 cell line was cultured in MEM supplemented with non-essential amino acids, glucose (21 mM), pyruvate (1 mM), and FBS (10%). PC3 cell line was cultured in F-12K medium supplemented with FBS (10%). MCF-7 cell line was cultured in DMEM supplemented with FBS (10%). OC24 cell line was cultured in RPMI1640 medium supplemented with FBS (10%) as suspension culture. MDA-MB-231 and 468 cell lines were cultured in Leibovitz's L15 medium supplemented with FBS (10%) under air. HT29 cell line was cultured in DMEM supplemented with glucose (25 mM) and FBS (10%). K562 cell line was cultured in RPMI1640 supplemented with FBS (10%). […] The signals were detected by western blot chemiluminescence reagent plus (New England Nuclear Life Science Products, Boston, Mass.). […]

BNIP3L = assay: Western blotting of BNIP3L in LNCaP cells; details: M4N 80 μM
Method: The sample volumes were adjusted by the total protein amount. Protein assay was performed by Bio-Rad Protein Assay (Bio-Rad Laboratories, Inc. Hercules, Calif.). The samples were resolved by the standard SDS-polyacrylamide gel electrophoresis and transferred to nitrocellulose membrane (Amersham Biosciences, Bjorkgatan, Sweden). The membranes were blocked with skim milk, and incubated with primary antibodies at 4° C. overnight and then with secondary antibody conjugated with horse radish peroxidase at room temperature for 2 hrs. The signals were detected by western blot chemiluminescence reagent plus (New England Nuclear Life Science Products, Boston, Mass.). BNIP3 is a member of Bcl-2 family proteins which sends pro-apoptotic signal to mitochondria and induces mitochondrial membrane potential depolarization. […] This implies that BNIP3 is involved in autophagy as well as cell death. […] Since BNIP3 is known to be activated more under hypoxic conditions (24), BNIP3 expression was examined in both normoxic and hypoxic conditions (FIGS. 3A&B). […] Previously it was shown that BNIP3 expression is augmented by hypoxia through both […] (HIF)1α-dependent and nondependent pathways (24).

[1] = system: mitochondrial membrane potential (ΔΨm); assay: Measurement of mitochondrial membrane potential with JC-1 dye in LNCaP cells
Method: The cells were cultured in 6 well microwell dishes and treated with the culture medium containing JC-1 dye (Cayman Chemical, Ann Arbor, Mich.) for 30 min, according to the company's protocol. After the cells had been washed carefully, they were treated with M4N for 5 hrs. The cells were observed through B29/Zeiss LSM 510 μMETA laser confocal microscope (Carl Zeiss, Germany). The cell images were captured by two different excitation lights (with 488 nm argon-ion and 568 nm argon-krypton lasers). Both JC-1 monomer and J-aggregates are detected by 488 nm excitation light while only J-aggregates are detected by 568 nm excitation light. The ratio of the intensity of the emission light excited by 568 nm light to that of the emission light excited by 488 nm light at every pixel of images (The ratio should indicate the mitochondrial potential) was calculated by the imaging software (Carl Zeiss, Germany). In the figure the ratio was shown by pseudo color. Red color indicates high ratio (high potential) while dark blue indicates low ratio (low potential). Yellow through green to light blue represents medium ratio (medium potential).
Since BNIP3 functions to activate mitochondria-related cell death machinery and induce mitochondrial membrane depolarization, the effect of M4N on the mitochondrial membrane potential (ΔΨm) was examined (FIG. 3C). […]

SMILES: COc1ccc(C[C@@H](C)[C@@H](C)Cc2ccc(OC)c(OC)c2)cc1OC [M4N, Tetra-O-methyl nordihyroguaiaretic acid]
- net amount of autophagosomes (LC3B staining) (LC3B): reduced the net amount of autophagosomes
- BNIP3 protein expression (BNIP3): blocks BNIP3 protein expression
- BNIP3L expression (BNIP3L): only slightly reduced
- mitochondrial membrane potential (ΔΨm) ([1]; 5 hrs, M4N 80 μM, JC-1 dye): hyperpolarized
- depolarization of mitochondrial membrane potential induced by rottlerin or Ly294002 ([1]; concomitant treatment with M4N): reversed to the normal potential to some extent
